Source: ChEMBL document CHEMBL5143724, “Small Molecules Promote Selective Denaturation and Degradation of Tubulin Heterodimers through a Low-Barrier Hydrogen Bond” (J Med Chem, 2022)
Calls of active or inactive are those of the source.

Tests used:
[1] = target: T1, Tubulin beta (Homo sapiens) (UniProt P68371+Q9H4B7+Q13509+P04350+Q3ZCM7+P07437+Q13885+Q9BVA1+Q9BUF5+A6NNZ2); assay: Induction of Beta tubulin degradation in human HeLa cells at 0.001 to 100 uM incubated for 16 hrs by immunoblotting analysis; assay type: cell-based; conditions: dose 0.001-100 µM
[2] = system: HeLa; assay: Antiproliferative activity against human HeLa cells assessed as cell viability at 0.001 to 100 uM incubated for 48 hrs by MTT assay; assay type: functional, cell-based; conditions: dose 0.001-100 µM
[3] = target: T1, Tubulin beta (Homo sapiens); assay: Induction of Beta tubulin degradation in human HeLa cells incubated for 24 hrs by immunoblot analysis; assay type: cell-based; conditions: DDE = dose-dependent effect
[4] = target: T1, Tubulin beta (Homo sapiens); assay: Induction of Beta tubulin degradation in human HeLa cells at 1 uM incubated for 16 hrs in presence of pironetin by immunoblot analysis; assay type: cell-based
[5] = system: HeLa; assay: Reduction in Alpha tubulin mRNA expression in human HeLa cells at 1 uM measured upto 16 hrs by qPCR analysis; assay type: functional, cell-based
[6] = target: T1, Tubulin beta (Homo sapiens); assay: Induction of Beta tubulin degradation in human HCT-116 cells incubated for 24 hrs by immunoblot analysis; assay type: cell-based; conditions: dose 0.3-30 µM, DDE = dose-dependent effect
[7] = target: Tubulin (Homo sapiens) (UniProt P68371+Q9H4B7+P0DPH7+P68366+Q13509+Q71U36+P04350+Q3ZCM7+P07437+P68363+Q9BQE3+Q6PEY2+Q13885+Q9BVA1+Q9BUF5); assay: Induction of tubulin denaturation (unknown origin) pre incubated for 2 to 8 hrs with compound followed by GH addition measured after 30 mins by spectrophotometer based microplate reader method; assay type: protein-complex assay; conditions: time 2.5-8.5 hrs
[8] = target: T2, Tubulin alpha (Homo sapiens) (UniProt P0DPH7+P68366+Q71U36+P68363+Q9BQE3+Q6PEY2+A6NHL2+Q9NY65); assay: Induction of Alpha tubulin degradation in human HCT-116 cells incubated for 24 hrs by immunoblot analysis; assay type: cell-based; conditions: dose 0.3-30 µM, DDE = dose-dependent effect
[9] = system: HeLa; assay: Reduction in Beta tubulin mRNA expression in human HeLa cells at 1 uM measured upto 16 hrs by qPCR analysis; assay type: functional, cell-based
[10] = target: T2, Tubulin alpha (Homo sapiens); assay: Induction of Alpha tubulin degradation in human HeLa cells at 1 uM incubated for 16 hrs in presence of maytansine by immunoblot analysis; assay type: cell-based
[11] = target: T2, Tubulin alpha (Homo sapiens); assay: Induction of Alpha tubulin degradation in human HeLa cells incubated for 24 hrs by immunoblot analysis; assay type: cell-based; conditions: DDE = dose-dependent effect
[12] = target: Tubulin (Sus scrofa) (UniProt P02554+P02550); assay: Induction of porcine tubulin aggregation assessed as formation of spherical sized tubulin aggregates at 20 uM incubated for 4 hrs by TEM analysis; assay type: protein assay
Tubulin (Sus scrofa), sequence (P02550 whole entry, looked up): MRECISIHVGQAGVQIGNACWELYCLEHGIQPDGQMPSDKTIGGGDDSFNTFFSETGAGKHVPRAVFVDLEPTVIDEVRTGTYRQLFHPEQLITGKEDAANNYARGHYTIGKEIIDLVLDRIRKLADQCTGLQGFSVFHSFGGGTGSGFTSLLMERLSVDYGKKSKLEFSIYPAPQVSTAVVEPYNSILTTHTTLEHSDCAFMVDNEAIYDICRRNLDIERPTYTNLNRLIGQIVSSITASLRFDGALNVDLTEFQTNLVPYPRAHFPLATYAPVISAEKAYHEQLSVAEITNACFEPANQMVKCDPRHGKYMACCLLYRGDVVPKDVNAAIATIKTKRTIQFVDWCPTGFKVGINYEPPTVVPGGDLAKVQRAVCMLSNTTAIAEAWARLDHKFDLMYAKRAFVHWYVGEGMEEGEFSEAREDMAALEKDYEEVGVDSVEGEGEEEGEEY
Tubulin (Sus scrofa), sequence (P02554 whole entry, looked up): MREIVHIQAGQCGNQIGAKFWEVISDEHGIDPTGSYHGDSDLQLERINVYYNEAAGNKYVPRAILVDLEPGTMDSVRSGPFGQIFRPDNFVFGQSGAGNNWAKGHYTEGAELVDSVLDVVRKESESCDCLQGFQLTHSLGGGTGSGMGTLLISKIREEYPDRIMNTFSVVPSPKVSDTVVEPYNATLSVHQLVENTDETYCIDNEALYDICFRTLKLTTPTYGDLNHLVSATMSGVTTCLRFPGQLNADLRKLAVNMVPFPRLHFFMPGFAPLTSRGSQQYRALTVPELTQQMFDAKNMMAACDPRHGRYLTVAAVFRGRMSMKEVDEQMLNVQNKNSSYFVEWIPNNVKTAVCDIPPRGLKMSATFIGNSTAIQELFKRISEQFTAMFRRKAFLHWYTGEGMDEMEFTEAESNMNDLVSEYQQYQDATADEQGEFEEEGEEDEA

Measured: Activity

c1ccc(Oc2cccc(CNc3ccccn3)c2)cc1
active: [1] | [2]

COc1cccc(-c2cc(NCc3ccc4c(c3)OCO4)nc(N)n2)c1
active: [3] Dde | [4] | [5] | [6] Dde | [7] | [8] Dde | [9] | [10] | [11] Dde | [12]
